Results reported in patent US6090834A, “Substituted oxazoles for the treatment of inflammation” (G.D. Searle & Co., priority 1998, dated 2000).

Key:
COX-1 = COX-1 activity in vitro (PGE2 formed, ELISA); assay type: biochemical, human or murine; details: recombinant enzyme, arachidonic acid 10 μM, pH 8.0; read-out: COX-1 ID50
Procedure: (§1) Evaluation of COX I and COX II activity in vitro
(§2) The COX-2 inhibition activity of the compounds of this invention illustrated in the Examples was determined by the following methods. a. Preparation of recombinant COX baculoviruses
(§3) Recombinant COX-1 and COX-2 were prepared as described by Gierse et al, [J. Biochem., 305, 479-84 (1995)]. A 2.0 kb fragment containing the coding region of either human or murine COX-1 or human or murine COX-2 was cloned into a BamH1 site of the baculovirus transfer vector pVL1393 (Invitrogen) to generate the baculovirus transfer vectors for COX-1 and COX-2 in a manner similar to the method of D. R. O'Reilly et al (Baculovirus Expression Vectors: A Laboratory Manual (1992)). Recombinant baculoviruses were isolated by transfecting 4 μg of baculovirus transfer vector DNA into SF9 insect cells (2×10^8) along with 200 ng of linearized baculovirus plasmid DNA by the calcium phosphate method. See M. D. Summers and G. E. Smith, A Manual of Methods for Baculovirus vectors and Insect Cell Culture Procedures, Texas Agric. Exp. Station Bull. 1555 (1987). Recombinant viruses were purified by three rounds of plaque purification and high titer (10^7 -10^8 pfu/ml) stocks of virus were prepared. For large scale production, SF9 insect cells were infected in 10 liter fermentors (0.5×10^6 /ml) with the recombinant baculovirus stock such that the multiplicity of infection was 0.1. After 72 hours the cells were centrifuged and the cell pellet homogenized in Tris/Sucrose (50 mM: 25%, pH 8.0) containing 1% 3-[(3-cholamidopropyl)dimethylammonio]-1-propanesulfonate (CHAPS). The homogenate was centrifuged at 10,000×G for 30 minutes, and the resultant supernatant was stored at -80° C. before being assayed for COX activity. […]
(§4) b. Assay for COX-1 and COX-2 activity
(§5) COX activity was assayed as PGE2 formed/μg protein/time using an ELISA to detect the prostaglandin released. CHAPS-solubilized insect cell membranes containing the appropriate COX enzyme were incubated in a potassium phosphate buffer (50 mM, pH 8.0) containing epinephrine, phenol, and heme with the addition of arachidonic acid (10 μM). Compounds were pre-incubated with the enzyme for 10-20 minutes prior to the addition of arachidonic acid. Any reaction between the arachidonic acid and the enzyme was stopped after ten minutes at 37° C./room temperature by transferring 40 μl of reaction mix into 160 μl ELISA buffer and 25 μM indomethacin. The PGE2 formed was measured by standard ELISA technology (Cayman Chemical).

COX-2 = COX-2 activity in vitro (PGE2 formed, ELISA); assay type: biochemical, human or murine; details: recombinant enzyme, arachidonic acid 10 μM, pH 8.0; read-out: COX II ID50
Procedure: as §1, §2, §3, §4, §5

Compound	IC50 (COX-1) [µM]	IC50 (COX-2) [µM]
CN(C)c1nc(-c2ccccc2)c(-c2ccc(S(N)(=O)=O)cc2)o1 [Example 58, 4-[2-(N,N-dimethylamino)-4-phenyl-5-oxazolyl]benzenesulfonamide]	31	< 0.1
COc1c(F)cc(-c2oc(C(F)(F)F)nc2-c2ccc(S(N)(=O)=O)cc2)cc1Br [Example 71, 4-[5-(3-bromo-4-methoxy-5-fluorophenyl)-2-trifluoromethyl-4-oxazolyl]benzenesulfonamide]	51	0.1
NS(=O)(=O)c1ccc(-c2oc(CC(=O)O)nc2-c2ccc(Cl)cc2)cc1 [Example 36, [5-(4-aminosulfonylphenyl)-4-(4-chlorophenyl)]-2-oxazoleacetic acid]	24.7	1.4
NS(=O)(=O)c1ccc(-c2oc(Oc3cccc(Cl)c3)nc2-c2ccccc2)cc1 [Example 47]	1	< 0.1
4-[2-methylsulfinyl)-4-phenyl-5-oxazolyl]benzenesulfonamide [Example 52]	35	–
CS(=O)(=O)c1ccc(-c2oc(-c3ccccc3)nc2C2CCCCC2)cc1 [Example 25, 4-(cyclohexyl)-5-[4-(methylsulfonyl)phenyl]-2-phenyloxazole]	> 10	0.5
NS(=O)(=O)c1ccc(-c2nc(CC(=O)O)oc2-c2ccc(Cl)c(Cl)c2)cc1 [Example 40, [4-(4-aminosulfonylphenyl)-5-(3.4-dichlorophenyl)]-2-oxazoleacetic acid]	26	< 0.1
NS(=O)(=O)c1ccc(-c2oc(C(F)(F)F)nc2-c2ccccc2)cc1 [Example 64, 4-[4-phenyl-2-trifluoromethyl-5-oxazolyl]benzenesulfonamide]	1.1	< 0.1
NS(=O)(=O)c1ccc(-c2nc(CC(=O)O)oc2-c2ccc(F)c(Cl)c2)cc1 [Example 39, [4-(4-aminosulfonylphenyl)-5-(3-chloro-4-fluorophenyl)]-2-oxazoleacetic acid]	> 100	79
NS(=O)(=O)c1ccc(-c2oc(S)nc2-c2ccccc2)cc1 [Example 46, 4-[2-mercapto-4-phenyl-5-oxazolyl]benzenesulfonamide]	1.7	0.5
CCOC(=O)c1cccc(Oc2nc(-c3ccccc3)c(-c3ccc(S(N)(=O)=O)cc3)o2)c1 [Example 57, ethyl 3-[[5-(4-aminosulfonylphenyl)-4-phenyl-2-oxazolyl]oxy]benzoate]	3.2	< 0.1
CCOC(=O)c1ccccc1Oc1nc(-c2ccccc2)c(-c2ccc(S(N)(=O)=O)cc2)o1 [Example 56, ethyl 2-[[5-(4-aminosulfonylphenyl)-4-phenyl-2-oxazolyl]oxy]benzoate]	4.5	< 0.1
NS(=O)(=O)c1ccc(-c2oc(Cl)nc2-c2ccccc2)cc1 [Example 45, 4-[2-chloro-4-phenyl-5-oxazolyl]benzenesulfonamide]	6.5	< 0.1
NS(=O)(=O)c1ccc(-c2nc(C(F)(F)F)oc2-c2ccc(Cl)cc2)cc1 [Example 59, 4-[5-(4-chlorophenyl)-2-trifluoromethyl-4-oxazolyl]benzenesulfonamide]	0.4	< 0.1
Cc1ccc(-c2nc(C(F)(F)F)oc2-c2ccc(S(C)(=O)=O)cc2)cc1 [Example 68, 4-(4-methylphenyl)-5-(4-methylsulfonylphenyl)-2-trifluoromethyl-oxazole]	2	< 0.1
COC(=O)CCc1nc(-c2ccc(S(C)(=O)=O)cc2)c(-c2ccc(F)cc2)o1 [Example 15, Methyl 3-[5-(4-fluorophenyl)-4-[4-(methylsulfonyl)phenyl]]-2-oxazolepropanoate]	> 30	0.2
Cc1nc(-c2ccccc2)c(-c2ccc(S(N)(=O)=O)cc2)o1 [Example 51, 4-[2-methyl-4-phenyl-5-oxazolyl]benzenesulfonamide]	14	< 0.1
CSc1nc(-c2ccccc2)c(-c2ccc(S(N)(=O)=O)cc2)o1 [Example 50, 4-[2-Methylthio-4-phenyl-5-oxazolyl]benzenesulfonamide]	7.4	< 0.1
NS(=O)(=O)c1ccc(-c2oc(CC(=O)O)nc2-c2ccccc2)cc1 [Example 38, [5-(4-aminosulfonylphenyl)-4-phenyl]-2-oxazoleaceticacid]	72	< 0.1

Compound	IC50 (COX-1) [µM]	IC50 (COX-2) [µM]
NS(=O)(=O)c1ccc(-c2nc(C(Br)C(=O)O)oc2-c2ccc(Cl)cc2)cc1 (centres unmarked) [Example 67]	33	0.8
NS(=O)(=O)c1ccc(-c2ocnc2-c2ccccc2)cc1 [Example 44, 4-[4-phenyl-5-oxazolyl]benzenesulfonamide]	> 100	79
4-[2-(methylsulfonyl)-4-phenyl-5-oxazolyl]benzenesulfonamide [Example 53]	–	0.5
COc1ccc(-c2oc(CC(=O)O)nc2-c2ccc(S(N)(=O)=O)cc2)cc1F [Example 66, [4-(4-aminosulfonylphenyl)-5-(3-fluoro-4-methoxyphenyl)]-2-oxazoleacetic acid]	21	13
NS(=O)(=O)c1ccc(-c2oc(Oc3c(F)c(F)c(F)c(F)c3F)nc2-c2ccccc2)cc1 [Example 54, 4-[2-(2,3,4,5,6-pentafluorophenoxy)-4-phenyl-5-oxazolyl]benzenesulfonamide]	3	< 0.1
COc1ccc(-c2oc(C)nc2-c2ccc(S(N)(=O)=O)cc2)cc1F [Example 69]	79	0.5
NS(=O)(=O)c1ccc(-c2oc(CO)nc2-c2ccccc2)cc1 [Example 75, 4-[2-hydroxymethyl-4-phenyl-5-oxazolyl]benzenesulfonamide]	> 100	< 0.1
CCOC(=O)C(Cc1ccccc1)c1nc(-c2ccc(F)cc2)c(-c2ccc(S(C)(=O)=O)cc2)o1 (centres unmarked) [Example 33]	3.1	0.05
Cc1nc(-c2ccc(S(C)(=O)=O)cc2)c(-c2ccc(F)cc2)o1 [Example 14, 5-(4-Fluorophenyl)-2-methyl-4-[4-(methylsulfonyl)phenyl]oxazole]	> 30	> 10
NC(=O)c1nc(-c2ccccc2)c(-c2ccc(S(N)(=O)=O)cc2)o1 [Example 72, 5-(4-aminosulfonylphenyl)-4-phenyl-oxazole-2-carboxamide]	> 100	2.2
NS(=O)(=O)c1ccc(-c2oc(SCC(=O)O)nc2-c2ccccc2)cc1 [Example 48, 5-(4-aminosulfonylphenyl)-4-phenyl-2-oxazolemercaptoacetic acid]	0.3	2.1
NS(=O)(=O)c1ccc(-c2nc(CC(=O)O)oc2-c2ccc(Cl)cc2)cc1 [Example 37, [4-(4-aminosulfonylphenyl)-5-(4-chlorophenyl)]-2-oxazoleacetic acid]	3.4	7
COCc1nc(-c2ccccc2)c(-c2ccc(S(N)(=O)=O)cc2)o1 [Example 73, 4-[2-methoxymethyl-4-phenyl-oxazolyl]benzenesulfonamide]	47.5	< 0.1
NS(=O)(=O)c1ccc(-c2oc(OCC(F)(F)F)nc2-c2ccccc2)cc1 [Example 49]	4.1	< 0.1
NS(=O)(=O)c1ccc(-c2nc(C(F)(F)F)oc2-c2ccc(F)c(F)c2)cc1 [Example 42, 4-[5-(3.4-difluorophenyl)-2-trifluoromethyl-4-oxazolyl]benzenesulfonamide]	11.4	< 0.1
CCOC(=O)Cc1nc(-c2ccc(S(N)(=O)=O)cc2)c(-c2ccc(OC)c(F)c2)o1 [Example 34, ethyl [4-(4-aminosulfonylphenyl)-5-(3-fluoro-4-methoxyphenyl)]-2-oxazoleacetate]	0.2	< 0.1
NS(=O)(=O)c1ccc(-c2oc(CCC(=O)O)nc2-c2ccccc2)cc1 [Example 43, [5-(4-aminosulfonylphenyl)-4-phenyl]-2-oxazolepropionic acid]	2.3	3.1
NS(=O)(=O)c1ccc(-c2nc(CC(=O)O)oc2-c2ccc(F)c(F)c2)cc1 [Example 41]	> 100	60.7
CS(=O)(=O)c1ccc(-c2oc(CCC3CCCCC3)nc2-c2ccc(F)cc2)cc1 [Example 32, 2-(2-cyclohexylethyl)-4-(4-fluorophenyl)-5-[4-(methylsulfonyl)phenyl]oxazole]	15.9	< 0.1
